Literature values, collected in US6262080A, “3-(thio-substitutedamido)-lactams useful as inhibitors of matrix metalloproteinase” (Avantis Pharmaceuticals Inc., priority 1999, dated 2001).

Tested on: B16-BL6 murine melanoma
Conditions: intraperitoneal administration; lung colonies produced by intravenous injection of B16-BL6 murine melanoma in C57BL/6N mice

**Q.** Which “growth and metastatic spread and number of lung colonies” value does the source give for CNC(=O)[C@H](Cc1ccccc1)NC(=O)[C@H](CC(C)C)[C@H](CSc1cccs1)C(=O)NO [batimastat] here?
**A.** Its value is “significant inhibition”.
